Reference: patent US20180081270A1, “RADIATION-SENSITIVE COMPOSITION, AMORPHOUS FILM, AND METHOD FOR FORMING RESIST PATTERN” (Mitsubishi Gas Chemical Company, Inc., priority 2015, published 2018)

Tests used:
[1] = Solubility in PGME and PGMEA at 23° C.; format: physicochemical; settings: for solubility in PGME and PGMEA (dissolution amount): 1-methoxy-2-propanol (PGME) and propylene glycol monomethyl ether acetate (PGMEA)
Method: The dissolution amount of the compound in 1-methoxy-2-propanol (PGME) and propylene glycol monomethyl ether acetate (PGMEA) was measured at 23° C., and the results were evaluated according to the following criteria.
Evaluation A: 20% by mass or more Evaluation B: 10% by mass or more and less than 20% by mass Evaluation C: less than 10% by mass

[2] = 10% thermal reduction temperature by thermogravimetry (TG); format: physicochemical; settings: 10° C./min to 500° C., nitrogen gas stream
Method: “EXSTAR 6000 DSC apparatus” manufactured by SII NanoTechnology Inc. was used. About 5 mg of a sample was placed in an unsealed container made of aluminum, and the temperature was raised to 500° C. at a temperature increase rate of 10° C./min in a nitrogen gas (30 mL/min) stream. In this operation, 10% thermal reduction temperature was measured.

solubility in PGME and PGMEA (dissolution amount) [1] [% by mass]	solubility in PGME and PGMEA (evaluation) [1]	10% thermal reduction temperature [2] [°C]	Structure (SMILES)
≥ 30	A (Evaluation A: 20% by mass or more)	≥ 400	Oc1ccc(-c2ccc(O)c(C(c3ccc(I)cc3)c3cc(-c4ccc(O)cc4)ccc3O)c2)cc1 [BiF-I-1]
≥ 30	A (Evaluation A: 20% by mass or more)	≥ 300	Oc1ccc(-c2ccc(O)c(C(c3cccc(I)c3)c3cc(-c4ccc(O)cc4)ccc3O)c2)cc1 [BiF-I-3]
≥ 30	A (Evaluation A: 20% by mass or more)	≥ 400	COc1cc(C(c2cc(-c3ccc(O)cc3)ccc2O)c2cc(-c3ccc(O)cc3)ccc2O)cc(O)c1I [BiF-I-2]
